Source: article PMC3673949, “Small Molecule R1498 as a Well-Tolerated and Orally Active Kinase Inhibitor for Hepatocellular Carcinoma and Gastric Cancer Treatment via Targeting Angiogenesis and Mitosis Pathways” (PLoS ONE, 2013)
Like-named read-outs stand apart in the source and are kept apart here.

Legend:
CNE-2 xenograft = conditions: CNE-2, 100 mg/kg, every 10 days, intraperitoneal injection; for Final TGI%: day of study termination
Description: The use and care of experimental animal was approved by Institutional Animal Care and Use Committee, Roche R&D Center (China). Tumor cells were inoculated into the right flank of BALB/C nu/nu female nude mice (5∼6 weeks, 16∼18 g, obtained from Sino-British SIPPR/BK Lab. Animal Ltd, Shanghai, China) at optimal density based on our in-house validation study. After the tumor was established and reached 100∼150 mm^3, the mice were randomized into ten mice per group and received treatment according to the schedule. The tumor growth was recorded three times a week with the measurement of length (L) and width (W) by caliper, and calculated as tumor volume (TV, mm^3) = 0.5*L*W*W (mm). […] The tumor regression of individual mouse was defined - the tumor volume at the end was less than the tumor volume when treatment was initiated.

[1] = system: colorectal cancer, breast cancer, melanoma, and leukemia xenografts; conditions: 150∼225 mg/kg once daily per oral; cited from earlier work
BEL-7402 xenograft = assay: Xenograft efficacy study; assay type: in vivo, BALB/C nu/nu nude mice
HCCLM3 xenograft = assay: Xenograft efficacy study; assay type: in vivo, BALB/C nu/nu nude mice; conditions: HCCLM3, 12.5 mg/kg twice a day per oral gavage
BEL-7404 xenograft = assay: Xenograft efficacy study; assay type: in vivo, BALB/C nu/nu nude mice; conditions: BEL-7404, 12.5 mg/kg twice a day per oral gavage
BGC-823 xenograft = assay: Xenograft efficacy study; assay type: in vivo, BALB/C nu/nu nude mice; conditions: BGC-823, 25 mg/kg twice a day per oral gavage
MGC-803 xenograft = assay: Xenograft efficacy study; assay type: in vivo, BALB/C nu/nu nude mice; conditions: MGC-803, 25 mg/kg twice a day per oral gavage
HGC-27 xenograft = assay: Xenograft efficacy study; assay type: in vivo, BALB/C nu/nu nude mice; conditions: HGC-27, 25 mg/kg twice a day per oral gavage
SGC-7901 xenograft = assay: Xenograft efficacy study; assay type: in vivo, BALB/C nu/nu nude mice
Raf-1 = conditions: cited from earlier work
[2] = system: advanced and metastatic HCC; conditions: first line therapy; placebo group 7.9 months; cited from earlier work
KIT = conditions: cited from earlier work
Ret = conditions: cited from earlier work
[3] = day of study termination (Table S2)

O=P1(N(CCCl)CCCl)NCCCO1 (centres unmarked) [Cyclophosphamide, cyclophosphamide]
Final TGI% (CNE-2 xenograft): 58%
Final TGI% (CNE-2 xenograft; listed as cyclophosphamide): 60%
Body weight changes% (CNE-2 xenograft; before vs after treatment): -2.1%
Tumor Regression (CNE-2 xenograft; mice with regression/group): 0/10

Cc1cc(Nc2cc(N3CCN(C)CC3)nc(/C=C/c3ccccc3)n2)n[nH]1 [ENMD-2076]
TGI% [1]: ~90%

CNC(=O)c1cc(Oc2ccc(NC(=O)Nc3ccc(Cl)c(C(F)(F)F)c3)cc2)ccn1 [Sorafenib, sorafenib, reference compound]
Final TGI% (BEL-7402 xenograft; BEL-7402, 25 mg/kg twice a day per oral gavage, day of study termination): 83%
Body weight changes% (BEL-7402 xenograft; BEL-7402, 25 mg/kg twice a day per oral gavage, before vs after treatment): -16%
Tumor Regression (BEL-7402 xenograft; BEL-7402, 25 mg/kg twice a day per oral gavage, mice with regression/group): 1/10
percentage of body weight loss (BEL-7402 xenograft; BEL-7402 model, 25 mg/kg twice daily per oral, termination day): exceeded 15%
Final TGI% (HCCLM3 xenograft; day of study termination): 71%
Body weight changes% (HCCLM3 xenograft; before vs after treatment): 4.4%
Tumor Regression (HCCLM3 xenograft; mice with regression/group): 0/10
Final TGI% (BEL-7404 xenograft; [3]): 75%
Body weight changes% (BEL-7404 xenograft; before vs after treatment): -4.2%
Tumor Regression (BEL-7404 xenograft; mice with regression/group): 0/10
Final TGI% (BGC-823 xenograft; [3]): 82%
Body weight changes% (BGC-823 xenograft; before vs after treatment): -3.5%
Tumor Regression (BGC-823 xenograft; mice with regression/group): 0/10
Final TGI% (MGC-803 xenograft; day of study termination): 92%
Body weight changes% (MGC-803 xenograft; before vs after treatment): -2.4%
Tumor Regression (MGC-803 xenograft; mice with regression/group): 2/10
Final TGI% (HGC-27 xenograft; day of study termination): 83%
Body weight changes% (HGC-27 xenograft; before vs after treatment): -5.5%
Tumor Regression (HGC-27 xenograft; mice with regression/group): 0/10
Final TGI% (SGC-7901 xenograft; SGC-7901, 25 mg/kg twice a day per oral gavage, day of study termination (Table S2)): 95%
Body weight changes% (SGC-7901 xenograft; SGC-7901, 25 mg/kg twice a day per oral gavage, before vs after treatment): -18%
Tumor Regression (SGC-7901 xenograft; SGC-7901, 25 mg/kg twice a day per oral gavage, mice with regression/group): 2/10
percentage of body weight loss (SGC-7901 xenograft; SGC-7901 model, 25 mg/kg twice daily per oral, termination day): exceeded 15%
median survival time [2]: 10.7 months

CNC(=O)c1cc(Oc2ccc(NC(=O)Nc3ccc(Cl)c(C(F)(F)F)c3)c(F)c2)ccn1 [regorafenib]
IC50 (KIT): 7 nM
IC50 (Ret): 1.5 nM
